From patent US11873298B2, “Compounds and uses thereof” (JANSSEN PHARMACEUTICA NV, priority 2017, dated 2024)
pIC50: −log10 of the molar value. Where “and” joins values, the source holds several entries; their conditions need not be identical. Equal entries are not always repeated.

What was measured:
Format in all cases: cell-based
[1] = biological target: T1, SCD5 (Homo sapiens, UniProt Q86SK9); assay: Growth inhibition of humanized yeast strain expressing SCD5 as sole desaturase; conditions: humanized yeast strain expressing SCD5
T1 construct: host or cells: S. cerevisiae ole1Δ strain (W303 pdr1Δ pdr3Δ background), plasmid pRS316 with TDH3 promoter and CYC1 terminator
T1 sequence (Q86SK9 1-330): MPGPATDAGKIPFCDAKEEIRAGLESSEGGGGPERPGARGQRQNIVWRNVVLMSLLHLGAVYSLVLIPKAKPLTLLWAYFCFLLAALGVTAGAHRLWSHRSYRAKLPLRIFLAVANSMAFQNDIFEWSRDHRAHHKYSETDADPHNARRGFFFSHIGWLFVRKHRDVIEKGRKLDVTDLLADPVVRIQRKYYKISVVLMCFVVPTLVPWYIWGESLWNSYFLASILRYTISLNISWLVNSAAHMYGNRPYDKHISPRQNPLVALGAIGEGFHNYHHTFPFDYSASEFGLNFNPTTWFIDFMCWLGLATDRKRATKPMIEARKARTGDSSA
In short: (§1)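 Plasmid-complemented ole1Δ yeast, drug-pump deleted (pdr1Δ pdr3Δ), depend solely on the introduced Ole1, SCD1 or SCD5 desaturase. Compounds are added from DMSO to cells in uracil-free galactose medium, 2× density 0.02, and OD600 is read after 24 h or 40 h respectively.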

[2] = biological target: T2, Ole1 (Saccharomyces cerevisiae, UniProt P21147); assay: Growth inhibition of yeast strain expressing Ole1 as sole desaturase; conditions: yeast strain expressing Ole1 as sole desaturase
T2 construct: expressed in transfected cells; host or cells: S. cerevisiae ole1Δ strain (W303 pdr1Δ pdr3Δ background), plasmid pRS316 with TDH3 promoter and CYC1 terminator
T2 sequence (P21147 1-510): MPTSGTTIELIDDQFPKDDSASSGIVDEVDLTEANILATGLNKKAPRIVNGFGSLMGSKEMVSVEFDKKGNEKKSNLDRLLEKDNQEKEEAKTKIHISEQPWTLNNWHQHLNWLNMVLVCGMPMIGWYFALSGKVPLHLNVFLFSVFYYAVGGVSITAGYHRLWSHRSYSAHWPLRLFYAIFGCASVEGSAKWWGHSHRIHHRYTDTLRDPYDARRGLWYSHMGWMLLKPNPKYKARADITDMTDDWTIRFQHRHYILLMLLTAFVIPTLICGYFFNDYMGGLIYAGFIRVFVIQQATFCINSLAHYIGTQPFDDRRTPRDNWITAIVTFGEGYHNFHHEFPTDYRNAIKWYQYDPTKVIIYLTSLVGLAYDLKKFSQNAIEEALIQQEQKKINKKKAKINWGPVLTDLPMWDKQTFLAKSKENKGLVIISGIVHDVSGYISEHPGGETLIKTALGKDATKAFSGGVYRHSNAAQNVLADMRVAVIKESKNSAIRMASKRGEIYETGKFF
Experimental: Strain oleΔ (yeast ole1 deletion mutant) was constructed by deleting OLE1 with NAT-MX6 in BY4741, amplifying the deletion cassette from the genomic DNA of the resulting strain with primers flanking the ORF by 1000 bp upstream and downstream, transforming the resulting deletion cassette into W303 pdr1Δ pdr3Δ, and plating transformants on YPD media containing G418 (200 μg/mL) and nourseothricin ([…]) with 0.01% TWEEN®-20 and 0.5 mM oleic and palmitoleic acids.
The coding sequence of yeast OLE1 was also cloned into this plasmid). These clones were then transformed into the ole1Δ strain and plated on CSM-Ura media (CSM lacking uracil) with 2% glucose (w/v) and independent colonies were isolated and amplified.
All compound profiling experiments were performed using the same basic protocol. Different genetic backgrounds (e.g., gene deletions) or conditions (e.g., addition of oleic and palmitoleic acid) were replaced as indicated below.
Yeast were cultured using standard techniques in complete synthetic media (CSM) and yeast nitrogen base supplemented with 2% (w/v) carbon source (glucose, raffinose, or galactose) to regulate the expression of the toxic disease protein. An initial starter culture was inoculated in 3 mL CSM-Glucose media and incubated overnight in a 30° C. shaker incubator (225 rpm). Saturated morning cultures were then diluted 1:20 in fresh CSM-Raffinose media and grown for 6 h to an OD600 (optical density) of ˜0.4-0.8 at 30° C. with shaking.
Compound administration was performed in two separate steps. First, 15 μL of CSM-Galactose (induces expression of toxic protein) was dispensed into clear 384 well assay plates using a MULTIDROP™ Combi reagent dispenser. […] The cultures described above were then diluted to a 2× concentration (0.03 and 0.08 for alpha-synuclein and ApoE, final ODsoo of 0.015 and 0.04) in CSM-Galactose. For wild-type and Ole1/SCD1/SCD5 plasmid-containing strains, the 2× cell density was 0.02. […] For 96-well assays (FIGS. 1A and 1B), compound dilutions in DMSO were generated in 96 well plates and 1 μL was manually pipetted into 96 well clear bottom assay plates.
For experiments using a plasmid-borne copy of Ole1, SCD1, or SCD5 (FIGS. 3B, 6, and 7), media lacking uracil (SX-Ura, where X is glucose, raffinose, or galactose), was used for all steps of the compound profiling protocol to ensure its maintenance throughout the assay.
After yeast delivery, assay plates were incubated under humidified conditions at 30° C. for 24 to 40 h. ApoE4 rescue experiments were stopped at 24 h, aSyn experiments at 40 h, Ole1 at 24 h, and SCD1/SCD5 at 40 h. The growth of yeast was monitored by reading the ODsoo of each well using a microplate reader (Perkin Elmer EnVision™).

[3] = biological target: T3, SCD1 (Homo sapiens, UniProt O00767); assay: Growth inhibition of humanized yeast strain expressing SCD1 as sole desaturase; conditions: humanized yeast strain expressing SCD1
T3 construct: host or cells: S. cerevisiae ole1Δ strain (W303 pdr1Δ pdr3Δ background), plasmid pRS316 with TDH3 promoter and CYC1 terminator
T3 sequence (O00767 1-359): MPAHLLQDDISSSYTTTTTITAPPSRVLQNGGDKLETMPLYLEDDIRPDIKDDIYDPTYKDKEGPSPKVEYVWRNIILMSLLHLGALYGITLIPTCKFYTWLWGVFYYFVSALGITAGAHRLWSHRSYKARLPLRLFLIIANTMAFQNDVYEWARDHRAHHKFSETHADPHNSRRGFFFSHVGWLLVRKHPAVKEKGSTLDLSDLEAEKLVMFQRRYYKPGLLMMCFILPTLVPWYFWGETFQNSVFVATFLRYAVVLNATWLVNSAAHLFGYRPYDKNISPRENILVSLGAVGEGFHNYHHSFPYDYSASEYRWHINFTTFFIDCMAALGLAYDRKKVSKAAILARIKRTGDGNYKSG
In short: as §1

| SMILES | pIC50 [1] | SCD5 % Max Inhibition [1] | pIC50 [2] | OLE1 % Max Inhibition [2] | pIC50 [3] | SCD1 % Max Inhibition [3] |
| --- | --- | --- | --- | --- | --- | --- |
| CCOc1ccc(-c2noc(C3CCN(C(=O)[C@@H]4CN(c5ccccc5)C(=O)O4)CC3)n2)cc1OC [Compound 172] | 4.39 | 68.80% | < 4.35 | 3.99% | < 4.35 | 89.39% |
| Cn1c(=O)n(C)c2cc(-c3noc(C4CCN(C(=O)CNC(=O)c5cccnc5)CC4)n3)ccc21 [Compound 233] | < 4.35 | 74.91% | < 4.35 | 18.46% | < 4.35 | 73.65% |
| COc1ccc(-c2noc(CCNC(=O)CNC(=O)c3ccccc3)n2)cc1OC [Compound 484] | < 4.35 | 81.46% | < 4.35 | 92.09% | – | 75.84% |
| Cc1nn(C)c2cc(-c3noc(C4CCN(C(=O)N5CCOCC5)CC4)n3)ccc12 [Compound 311] | < 4.35 | 60.5% | < 4.35 | 90.8% | – | 72.9% |
| Cc1ncc2ccc(-c3noc(C4CCN(C(=O)C5CC(=O)N(c6ccccc6)C5)CC4)n3)cn12 (centres unmarked) [Compound 216] | < 4.35 | 75.59% | 4.45 | 61.84% | < 4.35 | 83.82% |
| CCOc1ccc(-c2noc(N3CCN(C(=O)CN4Cc5ccccc5C4=O)CC3)n2)cc1OC [Compound 225] | < 4.35 | 88.95% | < 4.35 | 20.97% | < 4.35 | 94.06% |
| O=C(c1ccccc1)N1CCC(c2nc(N3CC4(CCCO4)C3)no2)CC1 [Compound 335] | < 4.35 | 61.2% | < 4.35 | 81.5% | – | 54.0% |
| CCOc1ccc(-c2noc(C3CCN(C(=O)C4CN(C(=O)c5ccccc5)C4)CC3)n2)cc1OC [Compound 237] | 4.49 | 45.34% | < 4.35 | 18.53% | < 4.35 | 71.76% |
| Cc1nn(C)c2cc(-c3noc(C4CCN(C(=O)c5ccccc5C(F)(F)F)CC4)n3)ccc12 [Compound 283] | < 4.35 | 9.83% | < 4.35 | 24.43% | 4.46 | 34.91% |
| N#Cc1ccc(-c2noc(C3CCN(C(=O)[C@H]4CC(=O)N(c5ccccc5)C4)CC3)n2)s1 [Compound 247] | < 4.35 | 72.46% | < 4.35 | 98.49% | – | 79.89% |
| CC(C)n1ncc2cc(-c3noc(C4CCN(C(=O)CNC(=O)c5ccccc5)CC4)n3)ccc21 [Compound 228] | < 4.35 | 2.72% | < 4.35 | 21.30% | – | 51.80% |
| O=C(CNC(=O)c1ccccc1)NCCc1nc(-c2ccccc2)no1 [Compound 485] | 4.52 | 65.42% | < 4.35 | 75.19% | – | 62.60% |
| Cn1c(=O)n(C)c2cc(-c3noc(C4CCN(C(=O)CNC(=O)c5ccncc5)CC4)n3)ccc21 [Compound 238] | 4.52 | 69.63% | < 4.35 | 4.93% | < 4.35 | 70.06% |
| Cc1nn(C)c2cc(-c3noc(C4CCN(C(=O)CNC(=O)c5ccc(Cl)cc5)CC4)n3)ccc12 [Compound 269] | < 4.35 | 8.38% and 5.30% | < 4.35 | 6.62% and 4.57% | – | 38.78% and 25.11% |
| Cc1nn(C)c2cc(-c3noc(C4CCN(C(=O)[C@H]5CC(=O)N(c6ccc(C#N)cc6)C5)CC4)n3)ccc12 [Compound 307] | < 4.35 | 52.5% and 27.45% | < 4.35 | 7.8% and 4.08% | ≤ 4.35 | 78.2% and 70.58% |
| Cn1c(=O)n(C)c2cc(-c3noc(C4CCN(C(=O)[C@@H](CO)NC(=O)c5ccccc5)CC4)n3)ccc21 [Compound 214] | < 4.35 | 74.58% | < 4.35 | 15.08% | – | 65.73% |
| C[C@H]1CN(c2noc(C3CCN(C(=O)C4CC(=O)N(c5cccc(Cl)c5)C4)CC3)n2)C[C@H](C)O1 (some centres unmarked) [Compound 324] | < 4.35 | 68.7% | < 4.35 | 90.5% | < 4.35 | 74.9% |
| Cc1nn(C)c2cc(-c3noc(C4CCN(C(=O)CNC(=O)c5cc(Cl)ccc5C(F)(F)F)CC4)n3)ccc12 [Compound 328] | < 4.35 | 80.5% | < 4.35 | 21.9% | – | 86.6% |
| CC(C)n1cc2ccc(-c3noc(C4CCN(C(=O)CNC(=O)c5ccccc5)CC4)n3)cc2n1 [Compound 181] | < 4.35 | 81.40% | < 4.35 | 20.70% | < 4.35 | 88.32% |
| CCn1nc2cc(-c3noc(C4CCN(C(=O)CNC(=O)c5ccccc5)CC4)n3)ccc2c1C [Compound 320] | < 4.35 | 76.0% | < 4.35 | 28.5% | – | 74.7% |
